Converted amounts (≈) assume the structure as drawn.
How the values were obtained:
KPC-2^V240G = KPC-2^V240G (Klebsiella pneumoniae, UniProt Q9F663, V239G); assay type: biochemical
[1] = system: engineered E. coli strain expressing KPC-2 wt; assay: microbe, parasite or virus in culture; assay type: cell-based; conditions: Escherichia coli; KPC-2 wt strain; BLIs at fixed 4 μg/mL
[2] = system: engineered E. coli strain expressing KPC-3^D179Y/T243M; assay: microbe, parasite or virus in culture; assay type: cell-based; conditions: Escherichia coli, BLIs at fixed 4 μg/mL
[3] = system: engineered E. coli strain expressing KPC-2^D179Y/T243M; assay: microbe, parasite or virus in culture; assay type: cell-based; conditions: Escherichia coli, BLIs at fixed 4 μg/mL
[4] = system: E. coli strains expressing KPC-2^D179Y or KPC-2^D179Y/T243M; assay: microbe, parasite or virus in culture; assay type: cell-based; conditions: Escherichia coli
KPC-2^D179Y [5] = molecular target: T1, KPC-2^D179Y (Klebsiella pneumoniae, UniProt Q9F663, D178Y); assay: β-lactam hydrolysis kinetics, purified KPC-2 D179Y; assay type: biochemical; conditions: substrate hydrolysis by KPC-2 D179Y
Procedure: (§1) Measurements to determine kinetic parameters for hydrolysis, and kinetic parameters for inhibition were performed at ambient temperature in PBS (pH 7.4) containing 0.1 mg/mL bovine serum albumin, using a PowerWaveXS plate reader (BioTek).
(§2) Assays to determine Michaelis-Menten kinetic parameters were performed by mixing variable amounts of enzymes (depending on the enzyme-substrate pair), with serial dilutions of different BL substrates and continuously monitoring the reduction in absorbance associated with BL hydrolysis ([28], [36], [40], [41]). Kinetic parameters were determined by plotting initial rates of hydrolysis (v) as a function of substrate concentration [S] and fitting the data to equation 1 using GraphPad Prism,
(§3) (1) v=[Et]×kcat×[S]/KM+[S]
(§4) where [Et] is the enzyme concentration, kcat the turnover number and KM the Michaelis constant.

KPC-3^D179Y/T243M [6] = molecular target: T2, KPC-3^D179Y/T243M (Klebsiella pneumoniae, UniProt Q9F663, D178Y/H272Y/T242M); assay: biochemical; conditions: ND = no significant inhibition at the highest concentration tested, read-out: Apparent affinity Ki^app
KPC-2^D179Y/T243M [7] = molecular target: T3, KPC-2^D179Y/T243M (Klebsiella pneumoniae, UniProt Q9F663, D178Y/T242M); assay: biochemical; conditions: ND = no significant inhibition at the highest concentration tested, read-out: Apparent affinity Ki^app
[8] = system: engineered E. coli strain expressing KPC-2^V240G; assay: microbe, parasite or virus in culture; assay type: cell-based; conditions: Escherichia coli, BLIs at fixed 4 μg/mL
[9] = system: E. coli control strain lacking a β-lactamase; assay: microbe, parasite or virus in culture; assay type: cell-based; conditions: Escherichia coli, no KPC expressed, BLIs at fixed 4 μg/mL
KPC-2^D179Y/T243M [10] = molecular target: T3, KPC-2^D179Y/T243M; assay: β-lactam hydrolysis kinetics, purified KPC-2 D179Y/T243M; assay type: biochemical; conditions: substrate hydrolysis by KPC-2 D179Y/T243M
Procedure: as §1, §2, §3, §4

KPC-3^V240G = KPC-3^V240G (Klebsiella pneumoniae, UniProt Q9F663, H272Y/V239G); assay type: biochemical
KPC-2^D179Y [11] = molecular target: T1, KPC-2^D179Y; assay: biochemical; conditions: ND = no significant inhibition at the highest concentration tested, read-out: Apparent affinity Ki^app
KPC-3 WT [12] = molecular target: T4, KPC-3 WT (Klebsiella pneumoniae, UniProt Q9F663, H272Y); assay: biochemical; conditions: inhibition of CENTA hydrolysis, read-out: Apparent affinity Ki^app
[13] = system: engineered E. coli strain expressing KPC-3^V240G; assay: microbe, parasite or virus in culture; assay type: cell-based; conditions: Escherichia coli, BLIs at fixed 4 μg/mL
KPC-3^D179Y/T243M [14] = molecular target: T2, KPC-3^D179Y/T243M; assay: β-lactam hydrolysis kinetics, purified KPC-3 D179Y/T243M; assay type: biochemical; conditions: substrate hydrolysis by KPC-3 D179Y/T243M
Procedure: as §1, §2, §3, §4

[15] = system: engineered E. coli strain expressing KPC-2^D179Y; assay: microbe, parasite or virus in culture; assay type: cell-based; conditions: Escherichia coli, BLIs at fixed 4 μg/mL
[16] = system: engineered E. coli strain expressing KPC-3^D179Y; assay: microbe, parasite or virus in culture; assay type: cell-based; conditions: Escherichia coli, BLIs at fixed 4 μg/mL
KPC-3 WT [17] = molecular target: T4, KPC-3 WT; assay type: biochemical; conditions: substrate hydrolysis by KPC-3 WT
KPC-3^D179Y [18] = molecular target: T5, KPC-3^D179Y (Klebsiella pneumoniae, UniProt Q9F663, D178Y/H272Y); assay: biochemical; conditions: ND = no significant inhibition at the highest concentration tested, read-out: Apparent affinity Ki^app
[19] = system: engineered E. coli strain expressing KPC-3 wt; assay: microbe, parasite or virus in culture; assay type: cell-based; conditions: Escherichia coli; KPC-3 wt strain; BLIs at fixed 4 μg/mL
KPC-2 WT = KPC-2 WT (Klebsiella pneumoniae, UniProt Q9F663); assay: biochemical; conditions: inhibition of CENTA hydrolysis, read-out: Apparent affinity Ki^app
[20] = system: D179Y-containing KPC-2 variants; assay type: biochemical, Klebsiella pneumoniae
KPC-3^D179Y [21] = molecular target: T5, KPC-3^D179Y; assay: β-lactam hydrolysis kinetics, purified KPC-3 D179Y; assay type: biochemical; conditions: substrate hydrolysis by KPC-3 D179Y
Procedure: as §1, §2, §3, §4

T2 sequence (Q9F663 27-293 D178Y/T242M/H272Y): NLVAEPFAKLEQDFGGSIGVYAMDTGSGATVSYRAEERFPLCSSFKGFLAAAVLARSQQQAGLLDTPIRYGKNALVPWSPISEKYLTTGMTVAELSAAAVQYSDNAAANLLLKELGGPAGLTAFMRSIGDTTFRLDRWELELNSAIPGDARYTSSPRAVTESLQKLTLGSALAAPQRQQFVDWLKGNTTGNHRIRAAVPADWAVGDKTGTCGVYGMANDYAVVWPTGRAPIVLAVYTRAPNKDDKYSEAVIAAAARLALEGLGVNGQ
T3 sequence (Q9F663 25-293 D178Y/T242M): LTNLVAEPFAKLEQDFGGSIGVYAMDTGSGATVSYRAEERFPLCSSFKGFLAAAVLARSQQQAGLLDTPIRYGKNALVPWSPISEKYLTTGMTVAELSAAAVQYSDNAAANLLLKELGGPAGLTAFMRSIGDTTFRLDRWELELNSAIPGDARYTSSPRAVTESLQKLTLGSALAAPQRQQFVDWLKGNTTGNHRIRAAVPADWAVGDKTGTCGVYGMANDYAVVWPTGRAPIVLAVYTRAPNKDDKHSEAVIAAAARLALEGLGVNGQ
T5 sequence (Q9F663 27-293 D178Y/H272Y): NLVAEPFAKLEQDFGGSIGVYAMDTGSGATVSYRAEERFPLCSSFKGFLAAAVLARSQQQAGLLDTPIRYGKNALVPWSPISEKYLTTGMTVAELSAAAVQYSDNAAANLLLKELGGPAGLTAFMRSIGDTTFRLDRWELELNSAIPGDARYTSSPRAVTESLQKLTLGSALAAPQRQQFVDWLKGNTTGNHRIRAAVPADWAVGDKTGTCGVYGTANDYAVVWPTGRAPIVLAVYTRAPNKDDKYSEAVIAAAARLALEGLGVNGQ
T1 sequence (Q9F663 25-293 D178Y): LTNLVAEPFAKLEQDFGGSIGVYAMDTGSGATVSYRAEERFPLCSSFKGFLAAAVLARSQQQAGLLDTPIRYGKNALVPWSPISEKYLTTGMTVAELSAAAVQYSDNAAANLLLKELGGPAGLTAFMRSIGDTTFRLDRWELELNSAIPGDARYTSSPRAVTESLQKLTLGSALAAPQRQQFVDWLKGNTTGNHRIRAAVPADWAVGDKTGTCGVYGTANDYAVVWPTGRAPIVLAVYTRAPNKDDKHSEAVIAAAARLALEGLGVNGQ
T4 sequence (Q9F663 27-293 H272Y): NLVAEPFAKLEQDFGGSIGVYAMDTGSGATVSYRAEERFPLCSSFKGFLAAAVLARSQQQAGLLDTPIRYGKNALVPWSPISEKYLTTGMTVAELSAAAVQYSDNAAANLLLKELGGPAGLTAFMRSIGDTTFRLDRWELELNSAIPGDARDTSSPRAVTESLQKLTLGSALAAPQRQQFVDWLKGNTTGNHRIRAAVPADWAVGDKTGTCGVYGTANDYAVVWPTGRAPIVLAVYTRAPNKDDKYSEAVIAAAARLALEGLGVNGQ
Chain of KPC-2 WT (Q9F663 25-293 limits assumed): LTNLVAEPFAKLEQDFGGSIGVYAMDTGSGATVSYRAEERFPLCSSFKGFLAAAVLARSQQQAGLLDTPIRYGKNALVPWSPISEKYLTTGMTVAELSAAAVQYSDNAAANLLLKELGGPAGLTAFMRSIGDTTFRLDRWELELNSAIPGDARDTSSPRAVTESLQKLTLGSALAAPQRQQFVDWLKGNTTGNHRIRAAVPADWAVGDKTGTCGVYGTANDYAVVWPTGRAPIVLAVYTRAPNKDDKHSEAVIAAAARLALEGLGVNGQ
Chain of KPC-3^V240G (Q9F663 27-293 V239G/H272Y): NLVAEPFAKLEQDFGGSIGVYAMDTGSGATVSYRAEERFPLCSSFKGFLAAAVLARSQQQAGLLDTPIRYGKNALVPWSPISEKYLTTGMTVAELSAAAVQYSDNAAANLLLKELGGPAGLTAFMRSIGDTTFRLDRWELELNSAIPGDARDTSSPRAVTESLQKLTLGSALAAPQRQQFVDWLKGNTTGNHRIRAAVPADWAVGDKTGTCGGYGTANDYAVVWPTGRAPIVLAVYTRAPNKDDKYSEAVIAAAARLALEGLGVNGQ
Chain of KPC-2^V240G (Q9F663 25-293 V239G): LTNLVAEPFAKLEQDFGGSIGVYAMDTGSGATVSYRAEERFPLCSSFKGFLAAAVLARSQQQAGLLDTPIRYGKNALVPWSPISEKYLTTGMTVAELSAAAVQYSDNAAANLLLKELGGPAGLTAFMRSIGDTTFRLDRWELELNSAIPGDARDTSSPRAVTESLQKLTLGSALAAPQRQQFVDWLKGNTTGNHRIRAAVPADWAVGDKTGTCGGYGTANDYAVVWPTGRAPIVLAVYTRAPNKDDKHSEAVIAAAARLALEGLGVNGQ

CO/N=C(\C(=O)N[C@@H]1C(=O)N2C(C(=O)[O-])=C(C[N+]3(C)CCCC3)CS[C@H]12)c1csc(N)n1 [FEP, cefepime]
Km (KPC-2^V240G): > 500 µM | MIC [1]: 64 µg/mL (≈ 133 µM) | MIC [2]: 16 µg/mL (≈ 33.3 µM) | MIC [3]: 16 µg/mL (≈ 33.3 µM) | MIC [4]: 16 µg/mL (≈ 33.3 µM) | Km (KPC-2^D179Y [5]): 3.7 ± 0.7 µM | kcat (KPC-2^D179Y [5]): (1.5 ± 0.07) × 10^−2 s^−1 | Ki (KPC-3^D179Y/T243M [6]): 728 ± 58 µM | Ki (KPC-2^D179Y/T243M [7]): 3.2 ± 0.6 µM | MIC [8]: 128 µg/mL (≈ 266 µM) | MIC [9]: 0.12 µg/mL (≈ 0.25 µM) | Km (KPC-2^D179Y/T243M [10]): 3 ± 0.6 µM | kcat (KPC-2^D179Y/T243M [10]): (1.7 ± 0.06) × 10^−2 s^−1 | Km (KPC-3^V240G): > 500 µM | Ki (KPC-2^D179Y [11]): 4.6 ± 1.2 µM | Ki (KPC-3 WT [12]): 276 ± 47 µM | MIC [13]: 256 µg/mL (≈ 533 µM) | Km (KPC-3^D179Y/T243M [14]): 42.5 ± 12.5 µM | kcat (KPC-3^D179Y/T243M [14]): 18.7 ± 2.3 s⁻¹ | MIC [15]: 16 µg/mL (≈ 33.3 µM) | MIC [16]: 32 µg/mL (≈ 66.6 µM) | Km (KPC-3 WT [17]): > 500 µM | Ki (KPC-3^D179Y [18]): 1040 ± 72 µM | MIC [19]: 128 µg/mL (≈ 266 µM) | Ki (KPC-2 WT): 32.9 ± 5.6 µM | weaker affinity than CAZ [20]: ~ 10 fold | Km (KPC-3^D179Y [21]): 90 ± 31 µM | kcat (KPC-3^D179Y [21]): 38 ± 7 s⁻¹

From PMC11881561 (Antimicrobial Agents and Chemotherapy, 2025)
